What was measured:
Assay type in all cases: in vitro ADME
[1] = Metabolic stability in CES1-KO mouse liver homogenate; conditions: tissue homogenate, 10 μM, 37° C.
Method: (§1) In vitro stability studies were done using CES1KO mouse plasma, human plasma, CES1-KO mouse liver, and human liver microsomes as previously described. For tissue homogenate stability studies, washed tissue was diluted 10-fold in 0.1 M potassium phosphate buffer and homogenized using probe sonication. Crude homogenate was then aliquoted to 1 mL, and spiked with 10 mM stock of the analyte in DMSO to achieve a 10 μM final concentration. The plasma stability of the prodrugs was determined by spiking the analyte in 1 mL of plasma. The plasma and tissues were incubated in an orbital shaker at 37° C. Stability in human liver microsomes was assessed at a final prodrug concentration of 1 μM with 0.2 mg/mL protein for microsomes. All the stability studies were conducted at predetermined times (0 and 60 min), where 50 μL aliquots of the mixture in triplicate were removed and the reaction was quenched by addition of 5 times the volume of ice-cold methanol spiked with the internal standard (losartan: 0.5 μM). The samples were vortex-mixed for 30 s and centrifuged at 10,000 g for 10 min at 4° C. An amount of 50 μL of the supernatant was diluted with 50 μL of water and transferred to a 250 μL polypropylene vial sealed with a Teflon cap. Prodrug disappearance was monitored over time using liquid chromatography and mass spectrometry (LC-MS).
(§2) Analyses were performed on a Dionex ultra high-performance LC system coupled with Q Exactive Focus orbitrap mass spectrometer (Thermo Fisher Scientific Inc., Waltham MA). Separation was achieved using Agilent Eclipse Plus column (100×2.1 mm i.d., maintained at 35° C.) packed with a 1.8 μm C18 stationary phase. The mobile phase consisted of 0.1% formic acid in water and 0.1% formic acid in acetonitrile, […] were operated at a flow rate of 0.3 mL/min for 7 min using gradient elution. The mass spectrometer controlled by Xcalibur software 4.0.27.13 (Thermo Scientific) was operated with a HESI ion source in positive ionization mode. Metabolites were identified in the full-scan mode (from m/z 50 to 1600) by comparing […] samples

[2] = Metabolic stability in human liver microsomes; conditions: 1 μM prodrug, 0.2 mg/mL protein
Method: as §1, §2

[3] = Plasma stability in CES1KO mouse plasma; conditions: 37° C., 60 min
Method: as §1, §2

[4] = Plasma stability in human plasma; conditions: 37° C.
Method: as §1, §2

| Structure (SMILES) | Liver Stability (% Remaining at 60 min) CES1^−/− Mouse Liver [1] | Liver Stability (% Remaining at 60 min) Human Liver Microsomes [2] | Plasma Stability (% Remaining at 60 min) CES1^−/− Mouse Plasma [3] | Plasma Stability (% Remaining at 60 min) Human Plasma [4] |
| --- | --- | --- | --- | --- |
| [N-]=[N+]=CC(=O)CC[C@H](NC(=O)[C@H](CCC(=O)C=[N+]=[N-])NC(=O)CC[C@H](N)C(=O)O)C(=O)O [Azotomycin] | 89.7 ± 0.88% | 23.7 ± 0.333% | 105 ± 7.64% | 74.3 ± 1.20% |
| CC(C)(C)OC(=O)[C@H](CCC(=O)C=[N+]=[N-])NC(=O)[C@H](CCC(=O)C=[N+]=[N-])NC(=O)CC[C@H](N)C(=O)OC(C)(C)C [Prodrug P1, tert-Butyl (S)-2-((S)-2-((S)-4-amino-5-(tert-butoxy)-5-oxopentanamido)-6-diazo-5-oxohexanamido)-6-diazo-5-oxohexanoate] | 87.0 ± 8.51% | 105 ± 0.859% | 101 ± 3.38% | 104 ± 1.00% |
| CC(=O)N[C@@H](CCC(=O)N[C@@H](CCC(=O)C=[N+]=[N-])C(=O)N[C@@H](CCC(=O)C=[N+]=[N-])C(=O)OC(C)(C)C)C(=O)OC(C)(C)C [Prodrug P2] | 100 ± 1.67% | 85.3 ± 7.88% | 104 ± 2.31% | 110 ± 4.70% |
| [N-]=[N+]=CC(=O)CC[C@H](NC(=O)[C@H](CCC(=O)C=[N+]=[N-])NC(=O)CC[C@H](N)C(N)=O)C(N)=O [Prodrug P5, (S)-4-Amino-N1-((S)-1-(((S)-1-amino-6-diazo-1,5-dioxohexan-2-yl)amino)-6-diazo-1,5-dioxohexan-2-yl)pentanediamide] | 4.33 ± 0.882% | 95.4 ± 0.595% | 87.7 ± 8.51% | 97.3 ± 2.85% |
| CC(=O)N[C@@H](CCC(=O)N[C@@H](CCC(=O)C=[N+]=[N-])C(=O)N[C@@H](CCC(=O)C=[N+]=[N-])C(N)=O)C(N)=O [Prodrug P6, (S)-4-Acetamido-N1-((S)-1-(((S)-1-amino-6-diazo-1,5-dioxohexan-2-yl)amino)-6-diazo-1,5-dioxohexan-2-yl)pentanediamide] | 85.0 ± 5.86% | 98.5 ± 0.676% | 99.0 ± 3.51% | 105 ± 1.76% |
| CN(C)CC(=O)N[C@@H](CCC(=O)N[C@@H](CCC(=O)C=[N+]=[N-])C(=O)N[C@@H](CCC(=O)C=[N+]=[N-])C(N)=O)C(N)=O [Prodrug P7, (S)—N1-((S)-1-(((S)-1-Amino-6-diazo-1,5-dioxohexan-2-yl)amino)-6-diazo-1,5-dioxohexan-2-yl)-4-(2-(dimethylamino)acetamido)pentanediamide] | 109 ± 10.0% | 95.3 ± 0.168% | 98.0 ± 12.5% | 98.7 ± 2.67% |
| CN(C)CC(=O)N[C@@H](Cc1c[nH]c2ccccc12)C(=O)N[C@@H](CCC(=O)N[C@@H](CCC(=O)C=[N+]=[N-])C(=O)N[C@@H](CCC(=O)C=[N+]=[N-])C(N)=O)C(N)=O [Prodrug P8, (S)—N1-((S)-1-(((S)-1-Amino-6-diazo-1,5-dioxohexan-2-yl)amino)-6-diazo-1,5-dioxohexan-2-yl)-4-((S)-2-(2-(dimethylamino)acetamido)-3-(1H-indol-3-yl)propanamido)pentanediamide] | 49.7 ± 0.333% | 95.8 ± 0.141% | 99.3 ± 1.45% | 109 ± 1.00% |
| CC(C)OC(=O)[C@H](CCC(=O)C=[N+]=[N-])NC(=O)[C@H](CCC(=O)C=[N+]=[N-])NC(=O)CC[C@H](N)C(=O)OC(C)C [Prodrug P9, Isopropyl (S)-2-((S)-2-((S)-4-amino-5-isopropoxy-5-oxopentanamido)-6-diazo-5-oxohexanamido)-6-diazo-5-oxohexanoate] | 0.320 ± 0.026% | >100% | 84.3 ± 10.5% | 85.9 ± 3.63% |
| [N-]=[N+]=CC(=O)CC[C@H](NC(=O)[C@H](CCC(=O)C=[N+]=[N-])NC(=O)CC[C@H](NC(=O)CN)C(=O)[O-])C(=O)[O-].[Na+].[Na+] [Prodrug P10, Sodium (S)-2-((S)-2-((S)-4-(2-aminoacetamido)-4-carboxylatobutanamido)-6-diazo-5-oxohexanamido)-6-diazo-5-oxohexanoate] | 90.4 ± 2.76% | 90.4 ± 4.10% | 104 ± 3.67% | 90.5 ± 6.35% |
| CCOC(=O)[C@H](CCC(=O)N[C@@H](CCC(=O)C=[N+]=[N-])C(=O)N[C@@H](CCC(=O)C=[N+]=[N-])C(=O)[O-])NC(=O)CN(C)C.[Na+] [Prodrug P11, Sodium (6S,11S,14S)-11,14-bis(4-diazo-3-oxobutyl)-6-(ethoxycarbonyl)-2-methyl-4,9,12-trioxo-2,5,10,13-tetraazapentadecan-15-oate] | 96.3 ± 1.80% | 103 ± 4.97% | 91.8 ± 4.16% | 83.6 ± 1.76% |
| CN(C)CC(=O)N[C@@H](CCC(=O)N[C@@H](CCC(=O)C=[N+]=[N-])C(=O)N[C@@H](CCC(=O)C=[N+]=[N-])C(=O)[O-])C(=O)[O-].[Na+].[Na+] [Prodrug P12, Sodium (6S,11S,14S)-6-carboxylato-11,14-bis(4-diazo-3-oxobutyl)-2-methyl-4,9,12-trioxo-2,5,10,13-tetraazapentadecan-15-oate] | 111 ± 9.27% | 99.6 ± 3.50% | 95.6 ± 0.44% | 76.2 ± 7.25% |
| CCOC(=O)[C@H](CCC(=O)C=[N+]=[N-])NC(=O)[C@H](CCC(=O)C=[N+]=[N-])NC(=O)CC[C@H](NC(=O)CN(C)C)C(=O)O [Prodrug P13, N^5—((S)-6-diazo-1-(((S)-6-diazo-1-ethoxy-1,5-dioxohexan-2-yl)amino)-1,5-dioxohexan-2-yl)-N^2-(dimethylglycyl)-L-glutamine] | 1.55 ± 0.77% | 109 ± 2.22% | 107 ± 6.6% | 86.6 ± 2.69% |
| CN(C)CC(=O)N[C@@H](CCC(=O)N[C@@H](CCC(=O)C=[N+]=[N-])C(=O)N[C@@H](CCC(=O)C=[N+]=[N-])C(=O)[O-])C(=O)OC(C)(C)C.[Na+] [Prodrug P14, Sodium (6S,11S,14S)-6-(tert-butoxycarbonyl)-11,14-bis(4-diazo-3-oxobutyl)-2-methyl-4,9,12-trioxo-2,5,10,13-tetraazapentadecan-15-oate] | 82.4 ± 4.03% | 103 ± 2.31% | 111 ± 4.09% | 96.2 ± 3.21% |
| CN(C)CC(=O)N[C@@H](CCC(=O)N[C@@H](CCC(=O)C=[N+]=[N-])C(=O)N[C@@H](CCC(=O)C=[N+]=[N-])C(=O)OC(C)(C)C)C(=O)[O-].[Na+] [Prodrug P15, Sodium N^5—((S)-1-(((S)-1-(tert-butoxy)-6-diazo-1,5-dioxohexan-2-yl)amino)-6-diazo-1,5-dioxohexan-2-yl)-N^2-(dimethylglycyl)-L-glutaminate] | 99.9 ± 3.45% | 93.2 ± 4.29% | >100% | 104 ± 8.45% |

Source: patent publication US20260151372A1, “AZOTOMYCIN PRODRUGS WITH PREFERENTIAL TUMOR DELIVERY” (The Johns Hopkins University, priority 2022, published 2026)
